Reference: US20060234997A1, “Tetrahydro-pyridoazepin-8-ones and related compounds for the treatment of schizophrenia” (WARNER-LAMBERT COMPANY LLC, priority 2005, published 2006)
Marks after values point to notes of the source that are not given here.

What was measured:
[1] = target: T1, Dopamine D2 receptor (hD2L) (Homo sapiens, UniProt P14416); test: Dopamine D2 Receptor Binding Assay ([3H]spiperone, CHO-hD2L membranes); conditions: [3H]spiperone 0.4 nM, membrane preparation from CHO-hD2L cells
T1 construct: expressed in transfected cells; host or cells: CHO cells (CHO-hD2L)
T1 sequence (P14416 whole entry): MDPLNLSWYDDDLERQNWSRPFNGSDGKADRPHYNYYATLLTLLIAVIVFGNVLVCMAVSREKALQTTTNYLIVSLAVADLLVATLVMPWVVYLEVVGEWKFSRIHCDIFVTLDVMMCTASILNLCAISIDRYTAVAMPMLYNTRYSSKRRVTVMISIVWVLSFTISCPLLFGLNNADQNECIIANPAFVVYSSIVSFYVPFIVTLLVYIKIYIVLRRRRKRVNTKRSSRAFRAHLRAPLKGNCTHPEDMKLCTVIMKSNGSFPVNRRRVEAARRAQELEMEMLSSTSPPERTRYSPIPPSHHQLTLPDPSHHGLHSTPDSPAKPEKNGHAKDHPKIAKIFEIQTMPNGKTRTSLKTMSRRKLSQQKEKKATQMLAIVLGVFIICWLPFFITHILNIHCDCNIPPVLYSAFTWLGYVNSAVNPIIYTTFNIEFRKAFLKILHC
Source text: The ability of the novel compounds of this invention to bind to the dopamine D2 receptor can be determined using conventional radioligand receptor binding assays. All receptors can be heterologously expressed in cell lines and binding assays can be conducted in membrane preparations from the cell lines using procedures outlined below. IC50 concentrations can be determined by nonlinear regression of concentration-dependent reduction in specific binding. The Cheng-Prussoff equation can be used to convert the IC50 to Ki concentrations.
[^3H]Spiperone binding to a membrane preparation from CHO-hD2L cells was carried out in 250 μl of 50 mM Tris-HCl buffer containing 100 mM NaCl, 1 mM MgCl2 and 1% DMSO at pH 7.4. Duplicate samples containing (in order of addition) the test compounds, 0.4 nM [^3H]spiperone and approximately 12 μg protein were incubated for 120 minutes at room temperature. Bound radioligand was separated by rapid filtration under reduced pressure through Whatman GF/B glass fiber filters previously treated with 0.3% polyethyleneimine. Radioactivity retained on the filter is determined by liquid scintillation spectrophotometry.

[2] = system: spontaneous locomotor activity in rats; test: Spontaneous Locomotor Activity Inhibition Test; type: in vivo, rat; conditions: 60 min after dosing, recorded 1 hour, mean ± SEM
Source text: Potential therapeutic effects of 2-{4-[4-(7-Fluoro-naphthalen-1-yl)-piperazin-1-yl]-butoxy}-5,6,7,9-tetrahydro-1,7,9-triaza-benzocyclohepten-8-one (hereinafter the “test compound”) were investigated in a spontaneous locomotor activity inhibition test in rats, a behavioral test predictive of antipsychotic activity. (A. E. Corbin, et. al.: PD 158771, a potential antipsychotic agent with D2/D3 partial agonist and 5-HT1A agonist actions. II. Prelinical behavioral effects. Neuropharmacology 39: 1211-1221 (2000)) The testing was performed using 16-Beam Digiscan Animal Activity Monitors (Accuscan Electronics, Columbus, Ohio). Each test chamber consisted of a PLEXIGLAS® box measuring 16×16 inches. These boxes were housed inside stainless steel, ventilated sound-attenuating chambers (SACs). Lights inside the SACs were off. Male Sprague-Dawley rats (Harlan), weighing 180 to 200 g at the time of testing, were used. Rats were provided with food and water ad libitum, but were food deprived for 24 hours before testing. Rats were randomly assigned to vehicle or drug treatment groups, and were tested one per chamber. On the test day, rats were removed from the housing room and brought to the test room, where they were placed into PLEXIGLAS® isolator cages on corncob bedding, 4 rats per cage. Rats were dosed orally (PO) with the test compound or vehicle, and then returned to the isolators. After a 60-minute absorption period, each rat was placed into the test chamber, the chamber door closed, and recording of locomotor activity begun. Locomotor activity was recorded for 1 hour, in 5-minute blocks. The test compound was suspended in 1% cremophor EL, 1% HCl 1N, and 0.5% methocel in water. The test compound or the vehicle was administered in a volume of 5 mL/kg. Doses are expressed as the active moiety (ie, base). Locomotor activity was measured as centimeters traveled and expressed as percent inhibition from vehicle control. Statistical analysis was performed using a one-way ANOVA followed by a post hoc Dunnett's test. Data from the vehicle-treated control groups from each experiment were compared using a one-way ANOVA.

## O=C1NCCc2ccc(OCCCCN3CCN(c4cccc5ccc(F)cc45)CC3)nc2N1 [Example 18, 2-{4-[4-(7-Fluoro-naphthalen-1-yl)-piperazin-1-yl]-butoxy}-5,6,7,9-tetrahydro-1,7,9-triaza-benzocyclohepten-8-one]
[1]
  Ki: 1.79 nM
[2]; 0.1 mg/kg PO
  Percent Decrease from Control (locomotor activity): 9.0 ± 37.9^c
[2]; 0.3 mg/kg PO
  Percent Decrease from Control (locomotor activity): 38.3 ± 47.2^bd
[2]; 1 mg/kg PO
  Percent Decrease from Control (locomotor activity): 53.7 ± 4.8^bd
[2]; 3 mg/kg PO
  Percent Decrease from Control (locomotor activity): 75.4 ± 3.5^cd

## O=C1NCCc2ccc(OCCCCN3CCN(c4cccc5c4CCC5)CC3)nc2N1 [Example 13, 2-[4-(4-Indan-4-yl-piperazin-1-yl)-butoxy]-5,6,7,9-tetrahydro-1,7,9-triaza-benzocyclohepten-8-one]
[1]
  Ki: 0.59 nM
other
  melting point: 70 to 72 °C

## O=C1NCCc2ccc(OCCCCN3CCN(c4cccc5c4OCCCO5)CC3)nc2N1 [Example 20, 2-{4-[4-(3,4-Dihydro-2H-benzo[b][1,4]dioxepin-6-yl)-piperazin-1-yl]-butoxy}-5,6,7,9-tetrahydro-1,7,9-triaza-benzocyclohepten-8-one]
[1]
  Ki: 1 nM
other
  melting point: 78 to 79 °C
